Measurements from patent US11021457B2, “Class of isoindolone-imide ring-1,3-dione-2-ene compounds, composition and use thereof” (WIGEN BIOMEDICINE TECHNOLOGY (SHANGHAI) CO., LTD., priority 2017, dated 2021).

Key:
SU-DHL6 = assay: Inhibition of tumor cell proliferation, CellTiter-Glo, SU-DHL6; format: cell-based; settings: compound concentration 50 μM, 72 hours; for cell survival rate (% of control) at 50 µM: Homo sapiens, SU-DHL-6, read-out: Inhibitory activity against proliferation (cell survival rate) SU-DHL6
Method in brief: (§1)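 Compound tested at 50 μM for 72 h, read by CellTiter-Glo. Survival rate = (treated−blank)/(control−blank) RLU ×100, binned as +++ ≤30%, ++ >30-≤60%, + 60-<90%. Seeding 2000-10000 cells/well depending on growth rate.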

RPMI-8226 = assay: Inhibition of tumor cell proliferation, CellTiter-Glo, RPMI-8226; format: cell-based; settings: compound concentration 50 μM, 72 hours; for cell survival rate (% of control) at 50 µM: Homo sapiens, RPMI-8226, read-out: Inhibitory activity against proliferation (cell survival rate) RPMI-8226
Method in brief: as §1

K562 = assay: Inhibition of tumor cell proliferation, CellTiter-Glo, K562; format: cell-based; settings: compound concentration 50 μM, 72 hours; for cell survival rate (%) at 50 µM: Homo sapiens, K562, read-out: Inhibitory activity against proliferation (cell survival rate) K562
Method in brief: as §1

MDA-MB-453 = assay: Inhibition of tumor cell proliferation, CellTiter-Glo, MDA-MB-453; format: cell-based; settings: compound concentration 50 μM, 72 hours; for cell survival rate (%) at 50 µM: Homo sapiens, MDA-MB-453, read-out: Inhibitory activity against proliferation (cell survival rate) MDA-MB-453
Method in brief: as §1

BxPC-3 = assay: Inhibition of tumor cell proliferation, CellTiter-Glo, BxPC-3; format: cell-based; settings: compound concentration 50 μM, 72 hours; for cell survival rate (%) at 50 µM: Homo sapiens, BXPC-3, read-out: Inhibitory activity against proliferation (cell survival rate) BxPC-3
Method in brief: as §1

LC3B = LC3B (Homo sapiens (Human), UniProt Q9GZQ8); assay: Fluorescence polarization experiment targeting LC3B (GST-LC3B with FITC-labeled peptide); settings: GST-LC3B 180 nM, FITC-labeled peptide 18 nM, 25° C.
A549 = assay: Inhibition of tumor cell proliferation, CellTiter-Glo, A549; format: cell-based; settings: compound concentration 50 μM, 72 hours; for cell survival rate (% of control) at 50 µM: Homo sapiens, A549, read-out: Inhibitory activity against proliferation (cell survival rate) A549
Method in brief: as §1

SMILES | Inhibitory activity against proliferation (cell survival rate) SU-DHL6 (SU-DHL6) | Inhibitory activity against proliferation (cell survival rate) RPMI-8226 (RPMI-8226) | Inhibitory activity against proliferation (cell survival rate) K562 (K562) | Inhibitory activity against proliferation (cell survival rate) MDA-MB-453 (MDA-MB-453) | Inhibitory activity against proliferation (cell survival rate) BxPC-3 (BxPC-3) | IC50 (LC3B) [µM] | cell survival rate (% of control) at 50 µM (SU-DHL6) [%] | cell survival rate (% of control) at 50 µM (RPMI-8226) [%] | cell survival rate (%) at 50 µM (K562) [%] | cell survival rate (% of control) at 50 µM (A549) [%] | cell survival rate (%) at 50 µM (MDA-MB-453) [%] | cell survival rate (%) at 50 µM (BxPC-3) [%] | Inhibitory activity against proliferation (cell survival rate) A549 (A549)
CC(C)[C@H](NC(=O)CN1CCN(CCNC=C2C(=O)CC(c3ccccc3)CC2=O)CC1)C(=O)N[C@@H](CCCNC(N)=O)C(=O)Nc1cccc2c1CN(C1CCC(=O)NC1=O)C2=O (stereo partly drawn) [Compound 60] | ++ (30<survival rate (%)≤60) | +++ (survival rate (%)≤30) | + (60≤survival rate (%)<90) | + (60≤survival rate (%)<90) | ++ (30<survival rate (%)≤60) | 15 to 100 |  |  |  |  |  |  | 
O=C1CCC(N2C(=O)c3cccc(NC(=O)[C@@H]4C[C@H](O)CN4CCNC=C4C(=O)CC(c5ccccc5)CC4=O)c3C2=O)C(=O)N1 (stereo partly drawn) [Compound 64] | +++ (survival rate (%)≤30) | ++ (30<survival rate (%)≤60) | +++ (survival rate (%)≤30) | +++ (survival rate (%)≤30) | + (60≤survival rate (%)<90) | 15 to 100 |  |  |  |  |  |  | 
O=C1CCC(N2Cc3c(NC=C4C(=O)CN(c5ccccc5)CC4=O)cccc3C2=O)C(=O)N1 (stereo not drawn) [Compound 119] |  |  |  |  |  |  | 30 to 60 | 30 to 60 | 30 to 60 | 60 to 90 | 30 to 60 | 30 to 60 | 
O=C1CCC(N2Cc3c(NC=C4C(=O)CC(/C=C/c5ccccc5)CC4=O)cccc3C2=O)C(=O)N1 (stereo not drawn) [Compound 120] | ++ (30<survival rate (%)≤60) | ++ (30<survival rate (%)≤60) | ++ (30<survival rate (%)≤60) | ++ (30<survival rate (%)≤60) | + (60≤survival rate (%)<90) |  |  |  |  |  |  |  | + (60≤survival rate (%)<90)
O=C1CCC(N2Cc3c(N/C=C4\C(=O)CC(Cc5ccccc5)C4=O)cccc3C2=O)C(=O)N1 (stereo not drawn) [Compound 121] |  |  |  |  |  |  | ≤ 30 | ≤ 30 | 30 to 60 | 60 to 90 | 30 to 60 | 60 to 90 | 
O=C1CCC(N2Cc3c(N/C=C4\C(=O)CCC(c5ccccc5)CC4=O)cccc3C2=O)C(=O)N1 (stereo not drawn) [Compound 124] |  |  |  |  |  |  | 60 to 90 | 60 to 90 | 60 to 90 | 60 to 90 | ≤ 30 | 30 to 60 | 
O=C1CCC(N2C(=O)c3cccc(OCCOCCOCCOCCN4CCN(CCNC=C5C(=O)CC(c6ccccc6)CC5=O)CC4)c3C2=O)C(=O)N1 (stereo not drawn) [Compound 125] | +++ (survival rate (%)≤30) | +++ (survival rate (%)≤30) | + (60≤survival rate (%)<90) | +++ (survival rate (%)≤30) | ++ (30<survival rate (%)≤60) |  |  |  |  |  |  |  | + (60≤survival rate (%)<90)
O=C1CCC(N2Cc3c(N/C=C4\C(=O)CC(c5ccccc5)NC4=O)cccc3C2=O)C(=O)N1 (stereo not drawn) [Compound 126] |  |  |  |  |  |  | 60 to 90 | ≤ 30 | 60 to 90 | 60 to 90 | 60 to 90 | 30 to 60 | 
CC1C(=O)/C(=C/Nc2cccc3c2CN(C2CCC(=O)NC2=O)C3=O)C(=O)CC1c1ccccc1 (stereo not drawn) [Compound 127] |  |  |  |  |  |  | ≤ 30 | 60 to 90 | 60 to 90 | 60 to 90 | 60 to 90 | 60 to 90 | 
O=C1CCC(N2Cc3c(NC=C4C(=O)CC(c5ncnc6sccc56)CC4=O)cccc3C2=O)C(=O)N1 (stereo not drawn) [Compound 130] | +++ (survival rate (%)≤30) | ++ (30<survival rate (%)≤60) | ++ (30<survival rate (%)≤60) | +++ (survival rate (%)≤30) | + (60≤survival rate (%)<90) |  |  |  |  |  |  |  | +++ (survival rate (%)≤30)
O=C1CCC(N2Cc3c(NCCOCCOCCOCCN4CCN(CCNC=C5C(=O)CC(c6ccccc6)CC5=O)CC4)cccc3C2=O)C(=O)N1 (stereo not drawn) [Compound 133] | + (60≤survival rate (%)<90) | + (60≤survival rate (%)<90) | ++ (30<survival rate (%)≤60) | + (60≤survival rate (%)<90) | ++ (30<survival rate (%)≤60) |  |  |  |  |  |  |  | + (60≤survival rate (%)<90)
CCOC(=O)C1CC(=O)C(=CNc2cccc3c2CN(C2CCC(=O)NC2=O)C3=O)C(=O)C1 (stereo not drawn) [Compound 134] | + (60≤survival rate (%)<90) | + (60≤survival rate (%)<90) | + (60≤survival rate (%)<90) | +++ (survival rate (%)≤30) | ++ (30<survival rate (%)≤60) |  |  |  |  |  |  |  | + (60≤survival rate (%)<90)
O=C1CCC(N2Cc3c(NC=C4C(=O)CC(C(=O)Nc5ccc(Cl)cc5)CC4=O)cccc3C2=O)C(=O)N1 (stereo not drawn) [Compound 135] | +++ (survival rate (%)≤30) | ++ (30<survival rate (%)≤60) | ++ (30<survival rate (%)≤60) | +++ (survival rate (%)≤30) | + (60≤survival rate (%)<90) |  |  |  |  |  |  |  | +++ (survival rate (%)≤30)
O=C1CCC(N2Cc3c(N/C=C4\C(=O)Nc5cc(C(F)(F)F)ccc5C4=O)cccc3C2=O)C(=O)N1 (stereo not drawn) [Compound 137] |  |  |  |  |  |  | ≤ 30 | ≤ 30 | 30 to 60 | 60 to 90 | 60 to 90 | 30 to 60 | 
O=C1CCC(N2Cc3c(N/C=C4\C(=O)Nc5c(ccc6ccccc56)C4=O)cccc3C2=O)C(=O)N1 (stereo not drawn) [Compound 138] |  |  |  |  |  |  | ≤ 30 | 30 to 60 | 30 to 60 | ≤ 30 | ≤ 30 | 60 to 90 | 
CC1(C#N)C(=O)/C(=C/Nc2cccc3c2CN(C2CCC(=O)NC2=O)C3=O)C(=O)CC1c1ccccc1 (stereo not drawn) [Compound 139] |  |  |  |  |  |  | ≤ 30 | ≤ 30 | ≤ 30 | 60 to 90 | ≤ 30 | 60 to 90 | 
